Measured values: ChEMBL document CHEMBL5385887, “Discovery of Sibiriline derivatives as novel receptor-interacting protein kinase 1 inhibitors” (Eur J Med Chem, 2023)
Activity calls are given as the source filed them. The rule behind the calls is not given here.

Experiments:
L929 = test: Anti-necroptosis activity against TNFalpha/z-VAD-fmk-induced mouse L929 cell necroptosis model assessed as cell viability pretreated with compound for 1 hr followed by treated with TZ for 6 hrs; type: functional, cell-based
[1] = molecular target: T1, Receptor-interacting serine/threonine-protein kinase 1 (Homo sapiens, UniProt Q13546); test: Inhibition of RIPK1 (unknown origin) using MBP substrate incubated for 2 hrs by ADP-Glo kinase function assay
T1 sequence (Q13546 whole entry): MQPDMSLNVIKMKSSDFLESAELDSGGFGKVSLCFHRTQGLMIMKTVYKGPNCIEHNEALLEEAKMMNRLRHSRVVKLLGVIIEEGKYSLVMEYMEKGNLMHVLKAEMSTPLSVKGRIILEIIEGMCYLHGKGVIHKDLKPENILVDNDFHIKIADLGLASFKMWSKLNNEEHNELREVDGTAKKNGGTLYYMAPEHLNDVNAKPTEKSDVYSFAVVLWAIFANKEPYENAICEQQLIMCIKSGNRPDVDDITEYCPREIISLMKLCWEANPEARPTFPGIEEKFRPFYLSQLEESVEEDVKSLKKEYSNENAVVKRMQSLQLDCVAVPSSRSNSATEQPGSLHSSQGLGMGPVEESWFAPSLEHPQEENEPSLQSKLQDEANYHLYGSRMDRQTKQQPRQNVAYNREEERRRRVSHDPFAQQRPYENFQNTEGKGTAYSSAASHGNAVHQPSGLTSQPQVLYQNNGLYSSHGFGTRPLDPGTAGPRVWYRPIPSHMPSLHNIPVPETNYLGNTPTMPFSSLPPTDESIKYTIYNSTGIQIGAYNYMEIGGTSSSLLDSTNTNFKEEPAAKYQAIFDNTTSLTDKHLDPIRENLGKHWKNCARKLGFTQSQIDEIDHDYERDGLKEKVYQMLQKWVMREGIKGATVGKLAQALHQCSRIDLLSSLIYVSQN

[2] = Cytotoxicity against mouse L929 cells by CCK-8 assay; type: toxicity, cell-based
HT-29 = test: Anti-necroptosis activity against TS-induced human HT-29 cell necroptosis model assessed as cell viability at 0.039 to 10 uM pretreated with compound for 1 hr followed by treated with TS for 12 hrs; type: functional, cell-based; conditions: dose 0.039-10 µM
Mus musculus = test: In vivo anti-necroptotic effect in TNFalpha-induced systemic inflammatory response syndrome C57BL/6J mouse model assessed as reduction in hypothermic injury by measuring increase in survival at 10 mg/kg, ip followed by compound treatment after 1 hr injected moue TNFalpha and measured continuously upto 72 hrs; type: functional; conditions: time 73 hrs

| Compound | EC50 (L929) | IC50 [1] | CC50 [2] | Activity (HT-29) | survival at 10 mg/kg (Mus musculus) |
| --- | --- | --- | --- | --- | --- |
| Oc1ccc(-c2ccc(-c3cc4cccnc4[nH]3)cc2)cc1 | 350 nM | 230 nM | > 10000 nM |  |  |
| COc1cc(-c2cc3cccnc3[nH]2)ccc1O | 140 nM | 120 nM | > 50000 nM |  |  |
| Oc1ccc(-c2ccnc3[nH]ccc23)cc1 | > 10000 nM |  | > 50000 nM |  |  |
| O=C(NC1CC1)c1ccc(-c2cc3cccnc3[nH]2)cc1 | 190 nM | 200 nM | > 50000 nM |  |  |
| Nc1ccc(-c2cc3cccnc3[nH]2)cc1 | 270 nM | 240 nM | > 50000 nM |  |  |
| Oc1cccc(-c2cc3cccnc3[nH]2)c1 | 1230 nM | 1080 nM | > 50000 nM |  |  |
| OCc1ccc(-c2cc3cccnc3[nH]2)cc1 | 140 nM | 170 nM | > 50000 nM |  |  |
| CC(C)(C)NC(=O)c1ccc(-c2cc3cccnc3[nH]2)cc1 | 170 nM | 90 nM | > 50000 nM |  |  |
| O=C(c1ccc(-c2cc3cccnc3[nH]2)cc1)N1CCNCC1 | 90 nM | 100 nM | > 50000 nM |  |  |
| Oc1ccc(-c2c[nH]c3ncccc23)cc1 | > 10000 nM |  | > 50000 nM |  |  |
| Oc1ccc(-c2cc3cccnc3[nH]2)cc1 | 1310 nM |  | > 50000 nM | inactive |  |
| CCNC(=O)c1ccc(-c2cc3cccnc3[nH]2)cc1 | 240 nM | 180 nM | > 50000 nM |  |  |
| CC(C)(C)Oc1ccc(-c2cnc3[nH]ccc3c2)cc1 | > 10000 nM |  | > 20000 nM |  |  |
| Oc1ccc(-c2cnc3[nH]cnc3c2)cc1 | > 10000 nM |  | > 50000 nM |  |  |
| N#Cc1ccc(-c2cnc3[nH]ccc3c2)cc1 | 1850 nM | 1170 nM | > 50000 nM |  |  |
| NC(=O)c1ccc(-c2cnc3[nH]ccc3c2)cc1 | 710 nM | 170 nM | > 50000 nM |  |  |
| O/N=C/c1ccc(-c2cc3cccnc3[nH]2)cc1 | 670 nM | 270 nM | > 50000 nM |  |  |
| Oc1ccccc1-c1cc2cccnc2[nH]1 | 1140 nM | 950 nM | > 50000 nM |  |  |
| O=C(c1ccc(-c2cc3cccnc3[nH]2)cc1)N1CCCC1 | 260 nM | 140 nM | > 50000 nM |  |  |
| O=C(c1ccc(-c2cc3cccnc3[nH]2)cc1)N1CCCCC1 | 130 nM | 120 nM | > 50000 nM |  |  |
| CCCNC(=O)c1ccc(-c2cc3cccnc3[nH]2)cc1 | 810 nM | 630 nM | > 50000 nM |  |  |
| Oc1ccc(-c2cnc3[nH]ccc3n2)cc1 | 5100 nM | 4860 nM | > 50000 nM |  |  |

| Compound | EC50 (L929) | IC50 [1] | CC50 [2] | Activity (HT-29) | survival at 10 mg/kg (Mus musculus) |
| --- | --- | --- | --- | --- | --- |
| c1cnc2[nH]c(-c3ccc4c(c3)CCCO4)cc2c1 | 890 nM | 1180 nM | > 50000 nM |  |  |
| Oc1ccc(-c2cnc3nccnc3c2)cc1 | > 10000 nM |  | > 50000 nM |  |  |
| Oc1ccc2ccc(-c3cc4cccnc4[nH]3)cc2c1 | 1420 nM | 2600 nM | > 50000 nM |  |  |
| Oc1cccc(-c2cnc3[nH]ccc3c2)c1 | > 10000 nM |  | > 50000 nM |  |  |
| c1ccc(Oc2ccc(-c3cc4cccnc4[nH]3)cc2)cc1 | 7540 nM | 9000 nM | > 50000 nM |  |  |
| CN1C(=O)C(Cc2c[nH]c3ccccc23)NC1=S (stereo unspecified) [NECROSTATIN] |  |  |  |  | 25% |
| Oc1ccc(-c2cnc3[nH]ccc3c2)cc1 | 1470 nM | 1090 nM | > 50000 nM |  |  |
| Oc1ccc(-c2cc3cccnc3[nH]2)cc1Cl | 5140 nM | 3870 nM | > 50000 nM |  |  |
| NC(=O)c1ccc(-c2cc3cccnc3[nH]2)cc1 | 90 nM | 110 nM | > 50000 nM |  |  |
| O/N=C/c1ccc(-c2cnc3[nH]ccc3c2)cc1 | 4270 nM | 3660 nM | > 20000 nM |  |  |
| c1cnc2[nH]c(-c3ccc4ncsc4c3)cc2c1 | 340 nM | 350 nM | > 50000 nM |  |  |
| CN1CCN(C(=O)c2ccc(-c3cc4cccnc4[nH]3)cc2)CC1 | 60 nM | 100 nM | > 20000 nM |  |  |
| CC(C)N(C(=O)c1ccc(-c2cc3cccnc3[nH]2)cc1)C(C)C | 190 nM | 130 nM | > 50000 nM |  |  |
| Oc1ccccc1-c1cnc2[nH]ccc2c1 | > 10000 nM |  | > 50000 nM |  |  |
| COc1ccc(-c2cc3ccc[nH]c-3n2)cc1 | 150 nM | 90 nM | > 50000 nM |  |  |
| CC(C)NC(=O)c1ccc(-c2cc3cccnc3[nH]2)cc1 | 810 nM | 500 nM | > 50000 nM |  |  |
| c1ccc(Oc2ccccc2-c2cnc3[nH]ccc3c2)cc1 | > 10000 nM |  | > 20000 nM |  |  |
| Oc1ccc(-c2cc3cccnc3[nH]2)cc1F | 1180 nM | 2560 nM | > 50000 nM |  |  |
| CNC(=O)c1ccc(-c2cc3cccnc3[nH]2)cc1 | 95 nM | 93 nM | > 50000 nM |  |  |
| OCCc1ccc(-c2cc3cccnc3[nH]2)cc1 | 300 nM | 230 nM | > 50000 nM |  |  |
| CC(C)(C)Oc1ccc(-c2cc3cccnc3[nH]2)cc1 | 170 nM | 220 nM | > 50000 nM |  |  |
| Oc1ccc(-c2ccc3cc[nH]c3n2)cc1 | > 10000 nM |  | > 50000 nM |  |  |
